Results as given in US10919896B2, “Preparation and uses of pyrimidinone derivatives” (Cancer Research Technology Limited, priority 2016, dated 2021).

Target: Cdc7/Dbf4 (Homo sapiens, UniProt O00311)
Experiment: Cdc7 Biochemical Assay Method 3: Cdc7/Dbf4 Enzyme TR-FRET Assay measuring pS40MCM2
Settings: 1 μM ATP, read-out: Biochemical Method 3 (pIC50) (converted)
Description: This protocol describes a method for assaying a compounds' ability to inhibit Cdc7 activity by measuring pS40MCM2 levels in a Cdc7/Dbf4 Enzyme TR-FRET Assay.
2.5 nM Cdc7/Dbf4 was incubated with 100 nM of biotin-labelled peptide 35-TDALTS(pS)PGRDLP in the presence of 1 μM ATP at 25° C. for 120 minutes. The phosphorylation of the peptide was detected using TR-FRET. Anti-Mcm2 (pS40) antibody, Terbium anti-rabbit secondary antibody and Streptavidin-Alexa Fluor488 form the detection system.

Sequence of Cdc7/Dbf4 (O00311 whole entry): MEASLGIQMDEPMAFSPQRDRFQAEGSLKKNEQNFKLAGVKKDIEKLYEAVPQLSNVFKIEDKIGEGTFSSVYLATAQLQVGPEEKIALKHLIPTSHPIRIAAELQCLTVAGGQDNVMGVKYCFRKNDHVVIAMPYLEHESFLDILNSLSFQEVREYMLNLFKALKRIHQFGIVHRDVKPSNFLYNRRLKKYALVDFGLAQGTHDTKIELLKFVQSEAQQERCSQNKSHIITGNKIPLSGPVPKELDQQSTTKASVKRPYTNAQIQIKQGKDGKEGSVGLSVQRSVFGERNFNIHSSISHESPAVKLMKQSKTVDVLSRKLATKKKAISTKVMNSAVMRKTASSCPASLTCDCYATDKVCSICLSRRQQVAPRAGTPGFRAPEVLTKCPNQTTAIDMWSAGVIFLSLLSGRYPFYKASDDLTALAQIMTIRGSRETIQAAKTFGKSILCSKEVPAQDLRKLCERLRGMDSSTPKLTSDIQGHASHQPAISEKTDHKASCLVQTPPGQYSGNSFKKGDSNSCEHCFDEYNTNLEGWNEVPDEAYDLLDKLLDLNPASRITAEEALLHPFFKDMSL
Sequence of Cdc7/Dbf4 (Q9UBU7 whole entry partner): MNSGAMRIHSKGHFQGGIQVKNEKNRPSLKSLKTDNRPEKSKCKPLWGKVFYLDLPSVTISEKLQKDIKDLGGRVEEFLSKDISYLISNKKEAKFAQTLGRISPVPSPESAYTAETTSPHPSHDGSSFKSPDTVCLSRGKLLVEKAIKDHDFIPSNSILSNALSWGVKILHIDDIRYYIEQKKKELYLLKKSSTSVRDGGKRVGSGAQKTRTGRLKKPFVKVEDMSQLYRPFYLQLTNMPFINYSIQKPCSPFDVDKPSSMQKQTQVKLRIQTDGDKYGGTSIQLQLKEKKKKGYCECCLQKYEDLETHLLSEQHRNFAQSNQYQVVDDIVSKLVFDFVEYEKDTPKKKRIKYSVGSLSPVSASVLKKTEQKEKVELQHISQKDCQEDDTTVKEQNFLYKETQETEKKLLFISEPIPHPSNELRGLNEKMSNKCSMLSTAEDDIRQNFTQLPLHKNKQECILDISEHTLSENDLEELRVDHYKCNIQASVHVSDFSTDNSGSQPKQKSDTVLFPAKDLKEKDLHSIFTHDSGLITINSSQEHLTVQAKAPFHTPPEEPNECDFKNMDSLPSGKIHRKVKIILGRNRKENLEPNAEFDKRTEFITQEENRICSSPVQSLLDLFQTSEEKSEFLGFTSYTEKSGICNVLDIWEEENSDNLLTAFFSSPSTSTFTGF

Row | SMILES | IC50
1 | O=c1[nH]c(-c2ccnc(F)c2)nc(N2CCOC3(CCNCC3)C2)c1Cl [Compound 227] | 2.24 nM
2 | O=c1[nH]c(-c2ccnc(F)c2)nc(N2CCC3(CCNCC3)C2)c1Cl [Compound 230] | 6.61 nM
3 | O=c1[nH]c(-c2ccnc(F)c2)nc(N2CCC(C3CCOCC3)C2)c1Cl (stereo not drawn) [Compound 228] | 53.7 nM
4 | CN(c1nc(-c2ccnc(F)c2)[nH]c(=O)c1Cl)C1CCOCC1 [Compound 229] | 8.51 nM
5 | O=c1[nH]c(-c2ccnc(F)c2)nc(N2CCC3(CCNC3)C2)c1Cl (stereo not drawn) [Compound 218] | 8.13 nM
6 | O=c1[nH]c(-c2ccnc(F)c2)nc(SC2CCOCC2)c1Cl [Compound 191] | 3.72 nM
7 | O=c1[nH]c(-c2ccnc(F)c2)nc(N2CCC3(CCNC3)CC2)c1Cl [Compound 242] | 1.15 nM
8 | O=c1[nH]c(-c2ccnc(F)c2)nc(N2CCC3(CCCO3)CC2)c1Cl [Compound 238] | 5.25 nM
9 | O=c1[nH]c(-c2ccnc(F)c2)nc(OC2CCOCC2)c1Cl [Compound 305] | 2 nM
10 | O=c1[nH]c(-c2ccnc(F)c2)nc(CN2CCOCC2)c1Cl [Compound 397, 5-chloro-2-(2-fluoro-4-pyridyl)-4-(morpholinomethyl)-1H-pyrimidin-6-one] | 219 nM
11 | Nc1ccc(Oc2nc(-c3ccnc(F)c3)[nH]c(=O)c2Cl)cc1 [Compound 287] | 19.1 nM
12 | CN(Cc1ccccc1)c1nc(-c2ccnc(F)c2)[nH]c(=O)c1Cl [Compound 289] | 95.5 nM
13 | O=c1[nH]c(-c2ccnc(F)c2)nc(SC2CCNCC2)c1Cl [Compound 193] | 2.88 nM
14 | O=c1[nH]c(-c2ccnc(F)c2)nc(N2CCOC3(CCOCC3)C2)c1Cl [Compound 292] | 11.5 nM
15 | O=c1[nH]c(-c2ccnc(F)c2)nc(N2CCC3CNCCC32)c1Cl (stereo not drawn) [Compound 225] | 2.09 nM
16 | O=c1[nH]c(-c2ccnc(F)c2)nc(CN2CCNCC2)c1Cl [Compound 398] | 295 nM
17 | O=c1[nH]c(-c2ccnc(F)c2)nc(N2CCC(CN3CCOCC3)C2)c1Cl (stereo not drawn) [Compound 212] | 79.4 nM
18 | CN(c1nc(-c2ccnc(F)c2)[nH]c(=O)c1Cl)C1CCNCC1(C)C (stereo not drawn) [Compound 210] | 4.37 nM
19 | O=c1[nH]c(-c2ccnc(F)c2)nc(OC2CNC2)c1Cl [Compound 194] | 14.5 nM
20 | O=c1[nH]c(-c2ccnc(F)c2)nc(N2CC3(CNC3)C2)c1Cl [Compound 198] | 66.1 nM
21 | O=c1[nH]c(-c2ccnc(F)c2)nc(N2CCc3nncn3CC2)c1Cl [Compound 354] | 2 nM
22 | O=c1[nH]c(-c2ccnc(F)c2)nc(N2CCN(c3nc[nH]n3)CC2)c1Cl [Compound 295] | 0.891 nM
23 | O=c1[nH]c(-c2ccnc(F)c2)nc(N2CCC3(CNC3)C2)c1Cl [Compound 245] | 2.04 nM
24 | O=c1[nH]c(-c2ccnc(F)c2)nc(N2CCC3(CCCNC3)C2)c1Cl (stereo not drawn) [Compound 220] | 15.5 nM
25 | O=c1[nH]c(-c2ccnc(F)c2)nc(N2CCn3cnnc3C2)c1Cl [Compound 269] | 0.525 nM
26 | O=c1[nH]c(-c2ccnc(F)c2)nc(O[C@H]2CCOC2)c1Cl [Compound 200] | 8.13 nM
27 | CC(C)c1nnc2n1CCN(c1nc(-c3ccnc(F)c3)[nH]c(=O)c1Cl)C2 [Compound 270] | 20.9 nM

The remaining lines, values ahead:

Row | IC50 | SMILES
28 | 6.76 nM | NC[C@H]1CCN(c2nc(-c3ccnc(F)c3)[nH]c(=O)c2Cl)C1 [Compound 219]
29 | 9.33 nM | NC(=O)[C@@H]1CCN(c2nc(-c3ccnc(F)c3)[nH]c(=O)c2Cl)C1 [Compound 249]
30 | 7.08 nM | CC(C)NC(=O)C1CCN(c2nc(-c3ccnc(F)c3)[nH]c(=O)c2Cl)CC1 [Compound 255]
31 | 1.1 nM | NC(=O)N1CCN(c2nc(-c3ccnc(F)c3)[nH]c(=O)c2Cl)CC1 [Compound 239]
32 | 2.88 nM | CNC(=O)C1CCN(c2nc(-c3ccnc(F)c3)[nH]c(=O)c2Cl)CC1 [Compound 231]
33 | 83.2 nM | CC(C)C[C@H]1CN2CCC[C@H]2CN1c1nc(-c2ccnc(F)c2)[nH]c(=O)c1Cl [Compound 349]
34 | 1.62 nM | O=c1[nH]c(-c2ccnc(F)c2)nc(N2C[C@H](O)C[C@H](O)C2)c1Cl [Compound 189]
35 | 6.31 nM | O=c1[nH]c(-c2ccnc(F)c2)nc(N2CCCC2)c1Cl [Compound 276]
36 | 6.03 nM | CCNC(=O)C1CCN(c2nc(-c3ccnc(F)c3)[nH]c(=O)c2Cl)CC1 [Compound 257]
37 | 25.1 nM | CC1CN(C)CCCN1c1nc(-c2ccnc(F)c2)[nH]c(=O)c1Cl (stereo not drawn) [Compound 302]
38 | 0.871 nM | C[C@H]1CCCCN1c1nc(-c2ccnc(F)c2)[nH]c(=O)c1Cl [Compound 280]
39 | 4.07 nM | O=c1[nH]c(-c2ccnc(F)c2)nc(N2CCCC(F)(F)CC2)c1Cl [Compound 204]
40 | 0.933 nM | O=C1CCN(c2nc(-c3ccnc(F)c3)[nH]c(=O)c2Cl)CCN1 [Compound 288]
41 | 4.57 nM | NC(=O)[C@H]1CCCN1c1nc(-c2ccnc(F)c2)[nH]c(=O)c1Cl [Compound 247]
42 | 5.37 nM | CO[C@H]1CCCN(c2nc(-c3ccnc(F)c3)[nH]c(=O)c2Cl)C1 [Compound 283]
43 | 6.31 nM | O=c1[nH]c(-c2ccnc(F)c2)nc(N2CCO[C@H]3CCCC[C@@H]32)c1Cl [Compound 332]
44 | 4.07 nM | NC(=O)[C@H]1CCN(c2nc(-c3ccnc(F)c3)[nH]c(=O)c2Cl)C1 [Compound 251]
45 | 1.82 nM | CC[C@H]1COCCN1c1nc(-c2ccnc(F)c2)[nH]c(=O)c1Cl [Compound 336]
46 | 7.41 nM | CNC(=O)C1CCCN(c2nc(-c3ccnc(F)c3)[nH]c(=O)c2Cl)C1 (stereo not drawn) [Compound 253]
47 | 6.61 nM | CC(C)[C@@H]1CN(c2nc(-c3ccnc(F)c3)[nH]c(=O)c2Cl)CCN1 [Compound 327]
48 | 42.7 nM | NC(=O)[C@@H]1CCCN1c1nc(-c2ccnc(F)c2)[nH]c(=O)c1Cl [Compound 248]
49 | 1.29 nM | O=c1[nH]c(-c2ccnc(F)c2)nc(N2CCOCC(O)C2)c1Cl (stereo not drawn) [Compound 207]

Target: Cdc7/ASK (Homo sapiens, UniProt O00311)
Experiment: Cdc7 Biochemical Assay Method 1: 384 well ELISA, whole protein substrate MCM2, antibody against Phospho MCM2 (S53)
Design: purchased
Settings: 2 μM ATP, read-out: Biochemical Method 1 (pIC50) (converted)
Description: This protocol describes a method for assaying Cdc7/ASK for activity. The assay is a 384 well ELISA assay, utilising a whole protein substrate (MCM2) and an antibody against Phospho MCM2 (S53). This site is thought to be specific to Cdc7/ASK phosphorylation and the assay has been validated using knockout mutants. Reagents • TBS: 25 mM Tris pH 7.2, 150 mM NaCl. (Dilute 10× stock by 1:10). • Wash Buffer: TBS+0.05% Tween 20. (Add 100 mL 1 M Tris pH 7.2, 120 mL 5 M NaCl and 2 mL 100% Tween 20 per 4 L). • Kinase Reaction Buffer: 50 mM Tris-HCl pH 8.5, 10 mM MgCl2, 1 mM DTT. (Dilute 10× stock by 1:10 and add 100 μL 1M DTT per 100 mL prior to assay). • Diethanolamine Buffer: 1 M diethanolamine pH 9.8, 0.5 mM MgCl2. • Stop Solution: 1 M NaOH. • MCM2 was expressed and purified in-house and used in the assay at a final assay concentration of 436 ng/well. • Cdc7/ASK is purchased from commercial suppliers and used in the assay at a final assay concentration of 37.97 ng/well or 20.63 nM. • ATP used as a final assay concentration of 2 μM. • Primary Antibody: Rabbit anti-Phospho MCM2 (S53 Antibody (BL3353)), is purchased from commercial suppliers at 0.2 mg/mL and used at a final assay concentration by diluting 1:800 in TBS. • Secondary Antibody: Anti-Rabbit/AP Antibody is supplied is purchased from commercial suppliers at 1 mg/mL and used at a final assay concentration by diluting 1:2000 in TBS. • Development Reagent: Dissolve one 20 mg PNPP tablet (Sigma, product […], 20 mg per tablet) per 20 mL diethanolamine Buffer (or one 5 mg PNPP tablet per 5 mL diethanolamine buffer). Cover in foil and leave shaking on a roller shaker at room temperature for up to an hour to dissolve. Methods • 1. Add 20 μL 1× working stock of Substrate (MCM2) in TBS to all wells of a clear, 384 well, Nickel-chelate microplate to give a final concentration of […]. Incubate at room temperature for at least 1 hour. Plates can be pre-coated for 1 hour and stored at 4° C. for up to 8 days. • 2. Wash with TBS+0.05% Tween 20 (80 μL×3). • 3. Add 2 μL 10× test compounds, including the positive control, in 40% DMSO/water to 'test' wells. Add 2 μL 40% DMSO/water to 'control' and 'blank' wells. The final DMSO concentration will be 4%. • 4. Add 13 μL CDC7/ASK Kinase (1.5× stock) in Kinase Reaction Buffer to 'test' and 'control' wells to give a final concentration of […]. Add 13 μL Kinase Reaction Buffer to 'blank' wells. • 5. Add 5 μL ATP (4× stock) in Kinase Reaction Buffer to all wells to give a final concentration of 2 μM. • 6. Incubate at room temperature for 90 minutes. • 7. Wash with TBS+0.05% Tween 20 (80 μL×3). • 8. Add 20 μL 1× working solution of Primary Antibody in TBS to all wells. Incubate at room temperature for 30 minutes. • 9. Wash with TBS+0.05% Tween 20 (80 μL×3). • 10. Add 20 μL 1× working solution of Secondary Antibody in TBS to all wells. Incubate at room temperature for 30 minutes. • 11. Wash with TBS+0.05% Tween 20 (80 μL×3). • 12. Add 20 μL 1× Development Reagent to all wells. • 13. Incubate at room temperature for 2 hours. Stop the reaction by adding 20 μL Stop Solution to all wells and record Absorbance on a Pherastar plate reader. Percentage inhibition values were calculated from absorbance values, using the no compound (DMSO) and no enzyme control values as 0% and 100% inhibition, respectively. IC50 determination was performed with ExcelFit software (IDBS) using curve fit 205. Z' factors were determined for each plate tested and were all above 0.5. Method 2

Sequence of Cdc7/ASK (O00311 whole entry): as the sequence (O00311 whole entry) above
Sequence of Cdc7/ASK (Q9UBU7 whole entry partner): as the sequence (Q9UBU7 whole entry partner) above

Row | IC50 | SMILES
50 | 2.63 nM | Cc1cc(C(=O)N2CCC(c3nc(-c4ccncc4)[nH]c(=O)c3Cl)CC2)[nH]n1 [Compound 52]
51 | 263 nM | O=c1[nH]c(-c2ccncc2)nc(N2CC(CO)C2)c1Cl [Compound 124]
52 | 23.4 nM | CC(C)(C)OC(=O)N1CCC(c2nc(-c3ccnc(F)c3)[nH]c(=O)c2Cl)CC1 [Compound 25]
53 | 67.6 nM | CCCC1COCCN1c1nc(-c2ccncc2)[nH]c(=O)c1Cl (stereo not drawn) [Compound 95]
54 | 123 nM | O=c1[nH]c(-c2ccncc2)nc(N2CCN(Cc3cccc(Cl)c3)CC2)c1Cl [Compound 80]
55 | 15.8 nM | O=C(c1ccccc1I)N1CCC(c2nc(-c3ccncc3)[nH]c(=O)c2Cl)CC1 [Compound 49]
56 | 407 nM | CC(C)CC1CN(c2nc(-c3ccncc3)[nH]c(=O)c2Cl)CCO1 (stereo not drawn) [Compound 93]
57 | 112 nM | O=c1[nH]c(-c2ccnc(O)c2)nc(C2CCOCC2)c1Cl [Compound 402, 5-chloro-2-(2-hydroxy-4-pyridyl)-4-tetrahydropyran-4-yl-1H-pyrimidin-6-one]
